Laboratory results taken from patent US9439424B2, “Synergistic weed control from applications of aminocyclopyrachlor and aminopyralid” (Dow AgroSciences LLC, priority 2012, dated 2016).
Where “and” joins values, the source holds several entries; their conditions need not be identical. Identical values can stand only once.

Tested on: kochia or mock cypress (Kochia scoparia, KCHSC)
Assay: Field trial, post-emergence foliar application, weed control rating 0-100%
Type: in vivo
Source text: The (a) aminocyclopyrachlor or an agriculturally acceptable salt or ester thereof is mixed with or applied in combination with (b) aminopyralid or an agriculturally acceptable salt or ester thereof in an amount sufficient to induce a synergistic herbicidal effect. […] As described in the Herbicide Handbook of the Weed Science Society of America, Ninth Edition, 2007, p. 429, “‘synergism’ [is] an interaction of two or more factors such that the effect when combined is greater than the predicted effect based on the response to each factor applied separately.” Synergistic in the herbicide context can mean that the use of (a) and (b) as defined above results in an increased weed control effect compared to the weed control effects that are possible with the use of (a) or (b) alone. In some embodiments, the damage or injury to the undesired vegetation caused by the compositions and methods disclosed herein is evaluated using a scale from 0% to 100%, when compared with the untreated control vegetation, wherein 0% indicates no damage to the undesired vegetation and 100% indicates complete destruction of the undesired vegetation. […] 22 (1967)
In the Colby equation, the value E corresponds to the effect (plant damage or injury) that is to be expected if the activity of the individual compounds is additive. If the observed effect is higher than the value E calculated according to the Colby equation, then a synergistic effect is present according to the Colby equation.
Field trials were conducted with applications made to established grassland with naturally occurring weed populations. The target plants were treated with postemergence foliar applications when they were just emerged to the three-leaf stage and 0.6 centimeters (cm) (0.25 inches (in)) tall. All treatments were applied using a randomized complete block trial design, with 3 replications per treatment.
Treatments consisted of aminocyclopyrachlor in acid form and aminopyralid-triisopropanolammonium, each in water and applied alone or in combination. Spray solutions were prepared using an appropriate amount of dilution to form a 1.7 L aqueous spray solution with active ingredients in single and two way combinations. Formulated compounds were applied to the plant material with a backpack sprayer equipped with 8002 nozzles calibrated to deliver 13.5 gallon/acre (127 L/ha) at a spray height of 18-20 in (43-50 cm) above average plant canopy.
The treated plants were kochia or mock cypress (Kochia scoparia, KCHSC). The treated plots and control plots were rated blind at various intervals after application. Ratings were based on a scale of 0-100%, as discussed above, wherein 0% indicates no damage to the undesired vegetation and 100% indicates complete destruction of the undesired vegetation
Colby's equation was used to determine the herbicidal effects expected from the mixtures, as described above. The results were measured at 93 days and 183 days after the first application of the compositions. […] The herbicide tank mix combinations tested, application rates and ratios employed, plant species tested, and results are given below.

Nc1nc(C2CC2)nc(C(=O)O)c1Cl [Aminocyclopyrachlor, 6-amino-5-chloro-2-cyclopropylpyrimidine-4-carboxylic acid]
Mean % weed control (aminocyclopyrachlor alone 140 g ae/ha, 93 days after application): 56.67% and 56.7% | Mean % weed control (aminocyclopyrachlor alone 140 g ae/ha, 183 days after application): 45%

Nc1cc(Cl)nc(C(=O)O)c1Cl [Aminopyralid-triisopropanolammonium, aminopyralid-triisopropanolammonium]
Mean % weed control (aminopyralid-triisopropanolammonium alone 70 g ae/ha, 93 days): 30% | Mean % weed control (aminopyralid-triisopropanolammonium alone 70 g ae/ha, 183 days): 16.67% | Mean % weed control (aminopyralid-triisopropanolammonium alone 120 g ae/ha, 93 days): 20% | Mean % weed control (aminopyralid-triisopropanolammonium alone 120 g ae/ha, 183 days): 13.3%
